Assay in all cases: biochemical
Type in all cases: biochemical

Assay [1] addresses T1, 382 unique human kinases (Homo sapiens, UniProt P22455).
T1 construct: purchased Reaction Biology (HotSpot contract assay)
The conditions noted are these: FGFR4, 10 uM; for remaining activity at 10 µM: read-out: % Enzyme Activity (relative to DMSO controls).

For assay [2], the target named is T2, 382 unique human kinases (Homo sapiens, UniProt Q9NRH2).
T2 construct: purchased Reaction Biology (HotSpot contract assay)
T2 sequence (Q9NRH2 1-765): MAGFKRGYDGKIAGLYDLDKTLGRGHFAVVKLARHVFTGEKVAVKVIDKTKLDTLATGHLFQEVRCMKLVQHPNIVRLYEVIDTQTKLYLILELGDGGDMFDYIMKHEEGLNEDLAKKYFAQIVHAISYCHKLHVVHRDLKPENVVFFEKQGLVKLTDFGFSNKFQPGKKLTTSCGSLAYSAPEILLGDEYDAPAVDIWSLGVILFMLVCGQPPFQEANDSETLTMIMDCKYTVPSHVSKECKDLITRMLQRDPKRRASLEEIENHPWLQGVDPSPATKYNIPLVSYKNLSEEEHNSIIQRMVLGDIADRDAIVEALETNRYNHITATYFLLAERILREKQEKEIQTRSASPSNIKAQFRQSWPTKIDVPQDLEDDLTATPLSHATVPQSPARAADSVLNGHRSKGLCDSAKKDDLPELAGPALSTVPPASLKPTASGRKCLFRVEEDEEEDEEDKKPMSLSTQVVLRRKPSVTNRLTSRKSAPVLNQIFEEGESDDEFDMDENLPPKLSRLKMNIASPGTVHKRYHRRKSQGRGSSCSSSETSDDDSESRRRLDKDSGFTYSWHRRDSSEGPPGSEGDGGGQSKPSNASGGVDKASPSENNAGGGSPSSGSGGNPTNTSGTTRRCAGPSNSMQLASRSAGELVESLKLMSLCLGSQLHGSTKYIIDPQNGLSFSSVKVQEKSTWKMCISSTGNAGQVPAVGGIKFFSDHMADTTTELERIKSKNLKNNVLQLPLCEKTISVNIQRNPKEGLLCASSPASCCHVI
To be noted: SNRK, 10 uM; for remaining activity at 10 µM: read-out: % Enzyme Activity (relative to DMSO controls).

Assay [3] concerns the target T3, 382 unique human kinases (Homo sapiens, UniProt P00533, A750P/DEL747-749).
T3 construct: purchased Reaction Biology (HotSpot contract assay)
To be noted: EGFR (d747-749/A750P), 10 uM; for remaining activity at 10 µM: read-out: % Enzyme Activity (relative to DMSO controls).

The target in assay [4] is T4, 382 unique human kinases (Homo sapiens, UniProt Q9UM73, R1275Q).
T4 construct: purchased Reaction Biology (HotSpot contract assay)
T4 sequence (Q9UM73 19-1620 R1275Q): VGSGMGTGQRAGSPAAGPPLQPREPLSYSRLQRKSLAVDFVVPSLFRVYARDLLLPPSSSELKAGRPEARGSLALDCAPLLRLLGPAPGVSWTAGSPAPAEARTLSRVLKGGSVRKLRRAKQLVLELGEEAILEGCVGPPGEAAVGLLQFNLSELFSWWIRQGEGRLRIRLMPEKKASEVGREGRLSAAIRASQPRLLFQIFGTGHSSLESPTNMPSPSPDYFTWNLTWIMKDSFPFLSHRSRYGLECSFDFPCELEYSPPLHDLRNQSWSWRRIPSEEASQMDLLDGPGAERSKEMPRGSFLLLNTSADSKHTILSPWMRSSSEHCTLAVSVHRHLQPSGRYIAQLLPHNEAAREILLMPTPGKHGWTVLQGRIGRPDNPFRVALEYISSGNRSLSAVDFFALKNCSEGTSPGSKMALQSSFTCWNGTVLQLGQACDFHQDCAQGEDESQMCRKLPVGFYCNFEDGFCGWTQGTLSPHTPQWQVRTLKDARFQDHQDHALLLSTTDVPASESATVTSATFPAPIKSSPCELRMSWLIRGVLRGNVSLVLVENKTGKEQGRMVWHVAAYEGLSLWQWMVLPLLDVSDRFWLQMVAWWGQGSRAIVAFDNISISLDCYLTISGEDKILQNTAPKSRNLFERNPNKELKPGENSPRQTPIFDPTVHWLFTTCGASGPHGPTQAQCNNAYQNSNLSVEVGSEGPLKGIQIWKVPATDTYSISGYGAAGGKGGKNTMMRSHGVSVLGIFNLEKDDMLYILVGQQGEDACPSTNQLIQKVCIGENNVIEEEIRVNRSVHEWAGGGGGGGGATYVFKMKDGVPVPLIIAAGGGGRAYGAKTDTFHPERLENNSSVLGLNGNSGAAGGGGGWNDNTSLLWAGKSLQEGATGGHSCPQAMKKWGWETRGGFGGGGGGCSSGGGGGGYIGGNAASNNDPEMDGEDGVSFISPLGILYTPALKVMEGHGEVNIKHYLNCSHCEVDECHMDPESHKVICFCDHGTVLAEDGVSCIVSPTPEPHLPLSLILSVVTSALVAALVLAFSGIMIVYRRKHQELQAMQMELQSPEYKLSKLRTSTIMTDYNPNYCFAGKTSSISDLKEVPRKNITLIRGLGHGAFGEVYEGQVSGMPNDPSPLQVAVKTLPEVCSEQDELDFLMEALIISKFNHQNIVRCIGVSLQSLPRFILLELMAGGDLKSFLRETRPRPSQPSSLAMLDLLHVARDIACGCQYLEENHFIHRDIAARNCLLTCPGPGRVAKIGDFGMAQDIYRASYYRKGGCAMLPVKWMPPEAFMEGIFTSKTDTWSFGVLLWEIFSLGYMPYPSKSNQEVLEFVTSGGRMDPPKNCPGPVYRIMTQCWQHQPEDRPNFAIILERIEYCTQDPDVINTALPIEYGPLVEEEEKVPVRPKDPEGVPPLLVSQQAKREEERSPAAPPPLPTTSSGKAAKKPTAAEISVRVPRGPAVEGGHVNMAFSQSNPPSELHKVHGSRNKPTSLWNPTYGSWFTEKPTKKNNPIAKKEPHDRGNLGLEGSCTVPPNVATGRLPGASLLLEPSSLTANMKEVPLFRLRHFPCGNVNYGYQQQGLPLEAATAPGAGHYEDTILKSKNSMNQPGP
To be noted: ALK (R1275Q), 10 uM; for remaining activity at 10 µM: read-out: % Enzyme Activity (relative to DMSO controls).

Assay [5] has as its target T5, 382 unique human kinases (Homo sapiens, UniProt P16234, V561D).
T5 construct: purchased Reaction Biology (HotSpot contract assay)
To be noted: PDGFRa (V561D), 10 uM; for remaining activity at 10 µM: read-out: % Enzyme Activity (relative to DMSO controls).

For assay [6], the target named is T6, 382 unique human kinases (Homo sapiens, UniProt Q9HAZ1).
T6 construct: purchased Reaction Biology (HotSpot contract assay)
T6 sequence (Q9HAZ1 whole entry): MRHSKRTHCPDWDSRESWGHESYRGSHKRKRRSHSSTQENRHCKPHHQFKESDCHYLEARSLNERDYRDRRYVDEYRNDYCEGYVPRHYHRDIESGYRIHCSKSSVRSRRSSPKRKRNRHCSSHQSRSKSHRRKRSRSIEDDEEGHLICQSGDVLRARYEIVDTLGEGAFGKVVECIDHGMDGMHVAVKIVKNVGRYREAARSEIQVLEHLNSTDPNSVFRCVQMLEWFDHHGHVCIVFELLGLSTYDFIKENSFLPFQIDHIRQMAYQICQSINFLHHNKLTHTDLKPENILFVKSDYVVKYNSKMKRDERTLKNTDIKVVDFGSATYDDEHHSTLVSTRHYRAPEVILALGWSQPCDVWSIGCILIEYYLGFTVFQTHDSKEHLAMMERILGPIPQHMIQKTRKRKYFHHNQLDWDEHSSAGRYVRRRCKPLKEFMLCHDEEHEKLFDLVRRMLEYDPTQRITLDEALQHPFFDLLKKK
To be noted: CLK4, [ATP] 2.5 µM, compound 10 uM; for remaining activity at 10 µM: read-out: % Enzyme Activity (relative to DMSO controls).

In assay [7] the target is T7, 382 unique human kinases (Homo sapiens, UniProt Q08881).
T7 construct: purchased Reaction Biology (HotSpot contract assay)
T7 sequence (Q08881 1-620): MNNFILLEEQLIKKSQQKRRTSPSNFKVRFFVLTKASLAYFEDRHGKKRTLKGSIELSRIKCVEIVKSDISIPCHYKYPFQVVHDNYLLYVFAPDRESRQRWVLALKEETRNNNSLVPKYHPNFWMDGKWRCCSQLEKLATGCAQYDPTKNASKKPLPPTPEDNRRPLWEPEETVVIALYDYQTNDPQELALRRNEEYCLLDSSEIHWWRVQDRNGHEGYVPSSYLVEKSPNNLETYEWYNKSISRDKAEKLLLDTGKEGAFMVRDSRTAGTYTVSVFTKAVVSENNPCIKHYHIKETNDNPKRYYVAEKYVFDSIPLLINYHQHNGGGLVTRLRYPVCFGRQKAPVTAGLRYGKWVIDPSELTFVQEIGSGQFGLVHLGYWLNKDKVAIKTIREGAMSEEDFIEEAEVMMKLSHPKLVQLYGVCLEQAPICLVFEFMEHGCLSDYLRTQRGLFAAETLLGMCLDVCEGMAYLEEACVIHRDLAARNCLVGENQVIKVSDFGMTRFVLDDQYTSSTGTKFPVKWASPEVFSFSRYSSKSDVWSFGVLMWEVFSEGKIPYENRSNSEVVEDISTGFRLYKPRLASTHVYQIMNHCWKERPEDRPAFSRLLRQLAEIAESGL
The conditions noted are these: ITK, 10 uM; for remaining activity at 10 µM: read-out: % Enzyme Activity (relative to DMSO controls).

Assay [8] deals with T8, 382 unique human kinases (Homo sapiens, UniProt P31749, E17K).
T8 construct: purchased Reaction Biology (HotSpot contract assay)
T8 sequence (P31749 whole entry E17K): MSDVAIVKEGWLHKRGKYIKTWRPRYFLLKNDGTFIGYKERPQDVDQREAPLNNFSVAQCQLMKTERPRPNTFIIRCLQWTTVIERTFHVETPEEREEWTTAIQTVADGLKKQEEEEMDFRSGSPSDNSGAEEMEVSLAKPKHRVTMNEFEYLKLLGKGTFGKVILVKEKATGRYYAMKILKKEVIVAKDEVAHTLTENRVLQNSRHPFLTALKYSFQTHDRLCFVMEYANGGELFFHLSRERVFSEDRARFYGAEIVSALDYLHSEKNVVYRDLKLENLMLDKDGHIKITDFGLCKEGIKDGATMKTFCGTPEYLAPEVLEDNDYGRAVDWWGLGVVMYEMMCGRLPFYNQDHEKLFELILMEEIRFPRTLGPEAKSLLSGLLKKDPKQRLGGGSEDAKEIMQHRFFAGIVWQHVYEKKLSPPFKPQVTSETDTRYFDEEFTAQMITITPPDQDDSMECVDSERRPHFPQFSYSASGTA
To be noted: AKT1 (E17K), 10 uM; for remaining activity at 10 µM: read-out: % Enzyme Activity (relative to DMSO controls).

T1 sequence (P22455 22-802): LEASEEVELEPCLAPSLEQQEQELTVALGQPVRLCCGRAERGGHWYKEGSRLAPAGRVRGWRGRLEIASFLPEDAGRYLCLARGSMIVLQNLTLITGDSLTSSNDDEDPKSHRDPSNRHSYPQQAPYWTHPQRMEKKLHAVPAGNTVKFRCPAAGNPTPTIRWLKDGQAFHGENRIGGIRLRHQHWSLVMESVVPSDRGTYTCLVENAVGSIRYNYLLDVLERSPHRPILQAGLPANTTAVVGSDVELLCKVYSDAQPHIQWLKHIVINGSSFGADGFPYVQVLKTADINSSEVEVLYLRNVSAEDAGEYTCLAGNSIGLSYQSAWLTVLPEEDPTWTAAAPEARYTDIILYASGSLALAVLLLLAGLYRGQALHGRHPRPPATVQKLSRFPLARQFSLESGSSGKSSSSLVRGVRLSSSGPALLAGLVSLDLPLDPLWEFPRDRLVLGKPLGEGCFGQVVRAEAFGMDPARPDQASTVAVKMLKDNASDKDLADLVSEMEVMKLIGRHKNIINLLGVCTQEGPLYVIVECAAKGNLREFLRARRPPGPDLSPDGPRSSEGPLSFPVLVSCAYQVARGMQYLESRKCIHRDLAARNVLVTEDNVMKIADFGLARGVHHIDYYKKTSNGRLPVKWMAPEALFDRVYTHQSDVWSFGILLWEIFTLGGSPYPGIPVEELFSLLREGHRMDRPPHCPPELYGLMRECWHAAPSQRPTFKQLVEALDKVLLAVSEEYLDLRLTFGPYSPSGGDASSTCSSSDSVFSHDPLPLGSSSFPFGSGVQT
T5 sequence (P16234 24-1089 V561D): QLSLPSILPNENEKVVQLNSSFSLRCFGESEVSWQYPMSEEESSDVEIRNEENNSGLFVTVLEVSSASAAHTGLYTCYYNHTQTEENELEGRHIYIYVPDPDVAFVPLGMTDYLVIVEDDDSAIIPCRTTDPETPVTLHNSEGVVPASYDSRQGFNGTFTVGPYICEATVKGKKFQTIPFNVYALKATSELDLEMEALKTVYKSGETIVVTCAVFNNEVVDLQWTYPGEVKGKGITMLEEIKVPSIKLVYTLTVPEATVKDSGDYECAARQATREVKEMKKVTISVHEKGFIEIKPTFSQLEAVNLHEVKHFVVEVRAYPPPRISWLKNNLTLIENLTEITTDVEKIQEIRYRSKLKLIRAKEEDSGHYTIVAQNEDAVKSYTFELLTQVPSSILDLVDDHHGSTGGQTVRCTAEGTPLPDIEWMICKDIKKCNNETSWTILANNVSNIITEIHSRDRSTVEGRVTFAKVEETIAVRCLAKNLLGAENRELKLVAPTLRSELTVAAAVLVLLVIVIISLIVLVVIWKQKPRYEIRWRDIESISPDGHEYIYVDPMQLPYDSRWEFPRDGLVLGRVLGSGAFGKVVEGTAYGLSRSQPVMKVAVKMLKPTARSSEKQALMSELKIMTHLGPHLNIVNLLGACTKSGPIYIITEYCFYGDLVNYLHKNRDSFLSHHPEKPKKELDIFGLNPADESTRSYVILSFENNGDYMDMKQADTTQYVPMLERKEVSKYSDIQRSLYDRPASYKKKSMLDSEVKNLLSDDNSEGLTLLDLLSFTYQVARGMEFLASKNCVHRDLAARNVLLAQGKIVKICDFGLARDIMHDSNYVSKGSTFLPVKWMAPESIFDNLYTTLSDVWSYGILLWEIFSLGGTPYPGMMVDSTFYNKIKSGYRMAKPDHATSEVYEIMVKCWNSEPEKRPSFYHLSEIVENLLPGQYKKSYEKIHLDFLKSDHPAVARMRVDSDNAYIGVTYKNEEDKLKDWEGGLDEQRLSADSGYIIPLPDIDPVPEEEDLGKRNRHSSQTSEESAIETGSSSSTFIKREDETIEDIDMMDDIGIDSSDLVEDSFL

With `CC(C)c1cc(-c2n[nH]c(=O)n2-c2ccc3c(ccn3C)c2)c(O)cc1O` [Ganetespib (STA9090)], the remaining activity at 10 µM on 382 unique human kinases [1] is 71.5%; on 382 unique human kinases [2], 76.8%; at 382 unique human kinases [3], 67.9%; at 382 unique human kinases [4], 65.1%.

Consider `CC(C)c1cc(-c2n[nH]c(=O)n2-c2ccc3c(ccn3C)c2)c(O)cc1O` [Ganetespib], for which the remaining activity at 10 µM was determined as 99.7% on 382 unique human kinases [5], 20.7% at 382 unique human kinases [6], 95.6% on 382 unique human kinases [7] and 94.2% on 382 unique human kinases [8].

On to `CCNC(=O)c1noc(-c2cc(C(C)C)c(O)cc2O)c1-c1ccc(CN2CCOCC2)cc1` [Luminespib (AUY-922)], for which the “% Enzyme Activity (relative to DMSO controls)” value on 382 unique human kinases [1] is 96.06%; on 382 unique human kinases [2], 79.00%; at 382 unique human kinases [3] it was 98.51%; on 382 unique human kinases [4], 101.49%. In addition, the remaining activity at 10 µM on 382 unique human kinases [1] amounted to 97.1%; at 382 unique human kinases [2], 80.5%; at 382 unique human kinases [3], 102%; at 382 unique human kinases [4], 102%.

For `CCNC(=O)c1noc(-c2cc(C(C)C)c(O)cc2O)c1-c1ccc(CN2CCOCC2)cc1` [Luminespib], the “% Enzyme Activity (relative to DMSO controls)” value on 382 unique human kinases [5] is on record as 103.61%; on 382 unique human kinases [6], 71.69%; on 382 unique human kinases [7], 92.96%; at 382 unique human kinases [8] it was 93.12%. Further, the remaining activity at 10 µM on 382 unique human kinases [5] came to 104%; on 382 unique human kinases [6], 72.1%; on 382 unique human kinases [7] it was 94.1%; on 382 unique human kinases [8], 101%.

These data come from paper PMC8550792, “Evolution of kinase polypharmacology across HSP90 drug discovery” (Cell Chemical Biology, 2021).
